Eight molecules from patent US8476298B2 (Exelixis, Inc., priority 2003, dated 2013) can be followed below.

Test [1] deals with c-Kit kinase (Homo sapiens, UniProt P10721). Briefly: c-Kit AlphaScreen kinase assay.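 Note: c-Kit kinase phosphorylating biotinylated poly(Glu,Tyr), ATP near its KM, 1 h reaction at ambient temperature, AlphaScreen chemiluminescence with streptavidin donor and anti-phosphotyrosine acceptor beads, 10-point inhibitor titration.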 Type of test: biochemical. To be noted: Table 4, inhibition as IC50 class.
Procedure: Kinase activity and compound inhibition are investigated using one or more of the three assay formats described below. The ATP concentrations for each assay are selected to be close to the Michaelis-Menten constant (KM) for each individual kinase. Dose-response experiments are performed at 10 different inhibitor concentrations in a 384-well plate format.
AlphaScreen™ (Perkin Elmer) technology is a proximity assay employing microparticles. Singlet oxygen derived from a donor bead following laser excitation results in chemiluminescence when in proximity (100 Å) to an acceptor bead due to biomolecular interactions.
c-Kit biochemical activity was assessed using AlphaScreen™ (Perkin Elmer) technology, described above. Test compounds, ATP, biotinylated poly(Glu, Tyr) and c-Kit kinase were combined in a volume of 20 μL in a 384-well white, medium binding microtiter plate (Greiner). Reaction mixtures were incubated for 1 hr at ambient temperature. […] After 16 hr incubation at ambient temperature plates were read using an AlphaQuest reader (Perkin Elmer).
Test [2] deals with T1, c-Met (baculovirus expressed human c-Met kinase domain P948-S1343) (Homo sapiens, UniProt P08581).
T1 construct: human c-Met kinase domain P948-S1343; host or cells: baculovirus expression
The test is described as follows: c-Met Luciferase-Coupled Chemiluminescent Kinase assay (LCCA).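 Note: kinase activity read as percent ATP left after reaction, by luciferase-luciferin chemiluminescence, with 1 µM ATP and 1 µM poly-EY substrate, 2 h at ambient temperature, 10-point dose-response.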 Conditions: Table 4, inhibition as IC50 class. It is filed as biochemical.

For test [3], the target named is T2, KDR (baculovirus expressed human KDR kinase domain D807-V1356) (Homo sapiens, UniProt P35968).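 Note: Luciferase-coupled chemiluminescent kinase assay, activity read as percent ATP left after 4 h reaction at ambient temperature, ATP near KM, 10-point dose-response in 384-well plates.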
T2 construct: human KDR kinase domain D807-V1356; host or cells: baculovirus expression
Briefly: biochemical. To be noted: Table 4, inhibition as IC50 class.

The target in test [4] is T3, Flt-3 (baculovirus expressed human Flt-3 kinase domain R571-S993) (Homo sapiens, UniProt P36888).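 Note: Luciferase-coupled chemiluminescent kinase assay, activity read as percent ATP left after a 3 h reaction at room temperature, ATP near KM, 10-point dose-response.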
T3 construct: human Flt-3 kinase domain R571-S993; host or cells: baculovirus expression
T3 sequence (P36888 571-993): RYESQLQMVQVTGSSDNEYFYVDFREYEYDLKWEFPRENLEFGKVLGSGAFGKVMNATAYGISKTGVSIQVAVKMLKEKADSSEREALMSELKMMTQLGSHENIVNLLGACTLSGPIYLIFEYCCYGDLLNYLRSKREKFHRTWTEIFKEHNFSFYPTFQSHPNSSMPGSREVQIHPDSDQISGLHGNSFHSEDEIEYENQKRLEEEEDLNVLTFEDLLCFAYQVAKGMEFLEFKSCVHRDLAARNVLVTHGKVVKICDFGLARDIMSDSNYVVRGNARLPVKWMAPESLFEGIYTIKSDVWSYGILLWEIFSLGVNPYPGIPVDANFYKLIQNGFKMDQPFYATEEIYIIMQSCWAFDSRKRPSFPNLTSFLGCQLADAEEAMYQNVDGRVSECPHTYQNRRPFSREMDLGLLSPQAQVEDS
The test is described as follows: biochemical. To be noted: Table 4, inhibition as IC50 class; read-out: flt3 IC50.

For test [5], the target named is T4, Flt-4 (baculovirus expressed human Flt-4 kinase domain D725-R1298) (Homo sapiens, UniProt P35916).
T4 construct: human Flt-4 kinase domain D725-R1298; host or cells: baculovirus expression
Briefly: flt-4 Alphascreen Tyrosine Kinase assay.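 Note: AlphaScreen chemiluminescence read-out of biotinylated poly(Glu,Tyr) 4:1 phosphorylation via streptavidin donor and PY100 anti-phosphotyrosine acceptor beads, ATP near KM, 1 hr kinase reaction, 10-point dose-response.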 Type of test: biochemical. Conditions: Table 4, inhibition as IC50 class; read-out: flt4 IC50.
Procedure: Kinase activity and compound inhibition are investigated using one or more of the three assay formats described below. The ATP concentrations for each assay are selected to be close to the Michaelis-Menten constant (KM) for each individual kinase. Dose-response experiments are performed at 10 different inhibitor concentrations in a 384-well plate format. […] Typically H is close to unity. c-Met Assay
Biochemical activity for flt-4 was assessed using an Alphascreen Tyrosine Kinase protocol. AlphaScreen™ (Perkin Elmer) technology is a proximity assay employing microparticles. Singlet oxygen derived from a donor bead following laser excitation results in chemiluminescence when in proximity (100 Å) to an acceptor bead due to biomolecular interactions. For the Flt-4 assay, donor beads coated with streptavidin and acceptor beads coated with PY100 anti-phosphotyrosine antibody were used (Perkin Elmer). Biotinylated poly(Glu,Tyr) 4:1 (Perkin Elmer) was used as the substrate. Substrate phosphorylation was measured by addition of donor/acceptor beads by chemiluminescence following donor-acceptor bead complex formation. […] Reaction mixtures were incubated for 1 hr at ambient temperature. […] After 2-16 hr incubation at ambient temperature plates were read using an AlphaQuest reader (Perkin Elmer).

Structures are written as SMILES.

T4 sequence (P35916 725-1298 isoform P35916-1): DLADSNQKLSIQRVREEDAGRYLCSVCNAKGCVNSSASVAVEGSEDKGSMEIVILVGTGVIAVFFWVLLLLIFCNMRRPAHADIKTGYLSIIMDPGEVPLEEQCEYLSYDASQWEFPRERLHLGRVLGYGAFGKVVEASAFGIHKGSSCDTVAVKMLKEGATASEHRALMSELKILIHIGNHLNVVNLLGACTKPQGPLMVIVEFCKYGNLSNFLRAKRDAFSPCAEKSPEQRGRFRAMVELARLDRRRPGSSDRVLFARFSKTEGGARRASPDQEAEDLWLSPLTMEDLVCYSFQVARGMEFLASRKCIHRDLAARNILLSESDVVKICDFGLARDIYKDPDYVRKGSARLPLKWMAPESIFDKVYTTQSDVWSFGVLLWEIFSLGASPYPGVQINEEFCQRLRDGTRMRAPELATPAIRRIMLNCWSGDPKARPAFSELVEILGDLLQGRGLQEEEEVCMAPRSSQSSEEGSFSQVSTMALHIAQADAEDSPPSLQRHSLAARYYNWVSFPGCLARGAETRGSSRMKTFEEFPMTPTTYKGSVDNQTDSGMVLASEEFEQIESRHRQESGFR
Chain of c-Kit kinase (P10721 26-976): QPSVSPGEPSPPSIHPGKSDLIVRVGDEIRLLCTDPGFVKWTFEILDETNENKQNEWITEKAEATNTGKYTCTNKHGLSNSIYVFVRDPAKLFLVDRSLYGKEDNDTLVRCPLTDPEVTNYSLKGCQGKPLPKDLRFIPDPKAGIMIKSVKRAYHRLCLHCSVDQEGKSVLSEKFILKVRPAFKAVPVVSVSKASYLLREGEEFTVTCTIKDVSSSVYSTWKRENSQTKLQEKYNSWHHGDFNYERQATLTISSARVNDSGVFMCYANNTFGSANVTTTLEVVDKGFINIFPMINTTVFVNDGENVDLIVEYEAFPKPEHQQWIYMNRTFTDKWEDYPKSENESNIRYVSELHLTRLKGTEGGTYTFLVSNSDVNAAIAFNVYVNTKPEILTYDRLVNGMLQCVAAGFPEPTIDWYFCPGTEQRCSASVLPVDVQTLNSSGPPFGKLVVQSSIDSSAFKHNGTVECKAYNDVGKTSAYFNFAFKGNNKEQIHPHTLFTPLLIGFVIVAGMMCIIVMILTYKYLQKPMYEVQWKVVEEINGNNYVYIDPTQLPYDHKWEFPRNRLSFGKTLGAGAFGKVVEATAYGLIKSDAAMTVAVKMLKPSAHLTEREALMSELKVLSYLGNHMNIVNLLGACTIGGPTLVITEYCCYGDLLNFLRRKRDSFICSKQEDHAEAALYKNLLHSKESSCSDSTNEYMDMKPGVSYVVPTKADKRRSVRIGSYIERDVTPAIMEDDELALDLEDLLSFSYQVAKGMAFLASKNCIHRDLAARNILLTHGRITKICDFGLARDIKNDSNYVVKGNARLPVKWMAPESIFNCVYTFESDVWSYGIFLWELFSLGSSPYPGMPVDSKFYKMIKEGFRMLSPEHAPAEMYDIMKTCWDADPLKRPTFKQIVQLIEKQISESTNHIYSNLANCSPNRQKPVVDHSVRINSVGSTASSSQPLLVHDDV
T2 sequence (P35968 807-1356): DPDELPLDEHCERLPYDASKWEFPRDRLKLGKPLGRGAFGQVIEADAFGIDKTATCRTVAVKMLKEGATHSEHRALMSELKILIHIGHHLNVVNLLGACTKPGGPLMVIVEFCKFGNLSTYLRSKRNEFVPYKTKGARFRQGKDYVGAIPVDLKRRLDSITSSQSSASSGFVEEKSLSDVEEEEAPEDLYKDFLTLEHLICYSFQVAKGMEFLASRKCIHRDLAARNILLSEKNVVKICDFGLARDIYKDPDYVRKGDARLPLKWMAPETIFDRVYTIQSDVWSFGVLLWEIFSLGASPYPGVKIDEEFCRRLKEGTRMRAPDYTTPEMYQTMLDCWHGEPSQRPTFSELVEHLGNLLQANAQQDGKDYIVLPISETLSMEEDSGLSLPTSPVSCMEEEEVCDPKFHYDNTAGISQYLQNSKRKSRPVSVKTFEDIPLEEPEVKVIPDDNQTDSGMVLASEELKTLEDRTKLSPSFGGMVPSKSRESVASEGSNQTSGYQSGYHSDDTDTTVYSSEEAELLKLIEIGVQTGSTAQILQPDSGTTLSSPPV
T1 sequence (P08581 1011-1343 limits assumed): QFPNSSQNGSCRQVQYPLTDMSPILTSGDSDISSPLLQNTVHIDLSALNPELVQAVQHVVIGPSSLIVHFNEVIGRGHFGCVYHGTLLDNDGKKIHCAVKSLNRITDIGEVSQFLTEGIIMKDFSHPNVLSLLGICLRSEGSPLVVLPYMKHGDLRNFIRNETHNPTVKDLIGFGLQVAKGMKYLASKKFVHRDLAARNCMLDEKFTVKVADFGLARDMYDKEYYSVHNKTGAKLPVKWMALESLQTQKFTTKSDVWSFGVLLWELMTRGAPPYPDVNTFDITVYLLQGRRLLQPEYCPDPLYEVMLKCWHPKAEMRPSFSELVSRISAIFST

For `COc1cc2c(Oc3ccc(NC(=O)C(=O)N[C@@H]4CCCc5ccccc54)cc3F)ccnc2cc1OCC1CCNCC1` [Example 218, N-[3-fluoro-4-({6-(methyloxy)-7-[(piperidin-4-ylmethyl)oxy]quinolin-4-yl}oxy)phenyl]-N′-[(1R)-1,2,3,4-tetrahydronaphthalen-1-yl]ethanediamide], the IC50 in test [1] was 50 to 500 nM; in test [2] it was < 50 nM; in test [3], 50 to 500 nM; in test [4], 50 to 500 nM; in test [5] it was < 50 nM.

As to `COc1cc2c(Oc3ccc(NC(=O)C(=O)N[C@H]4CCCc5ccccc54)cc3F)ccnc2cc1OCC1CCNCC1` [Example 219, N-[3-fluoro-4-({6-(methyloxy)-7-[(piperidin-4-ylmethyl)oxy]quinolin-4-yl}oxy)phenyl]-N′-[(1S)-1,2,3,4-tetrahydronaphthalen-1-yl]ethanediamide], the IC50 in test [1], in test [2], in test [3], in test [4] and in test [5] was < 50 nM each time.

Take `COc1cc2c(Oc3ccc(NC(=O)C(=O)NC4CCCC4)cc3F)ccnc2cc1OCC1CCNCC1` [Example 220, N-cyclopentyl-N′-[3-fluoro-4-({6-(methyloxy)-7-[(piperidin-4-ylmethyl)oxy]quinolin-4-yl}oxy)phenyl]ethanediamide]: the IC50 in test [1] is 50 to 500 nM; in test [2], < 50 nM; in test [3], 50 to 500 nM; in test [4], 50 to 500 nM; in test [5] it was 50 to 500 nM.

As for `COc1cc2c(Oc3ccc(NC(=O)C(=O)NC(C)c4ccc(Br)cc4)cc3F)ccnc2cc1OCC1CCNCC1` (stereo not shown) [Example 221, N-[1-(4-bromophenyl)ethyl]-N′-[3-fluoro-4-({6-(methyloxy)-7-[(piperidin-4-ylmethyl)oxy]quinolin-4-yl}oxy)phenyl]ethanediamide], the IC50 is 50 to 500 nM in test [1]; < 50 nM in test [2]; 50 to 500 nM in test [3]; 50 to 500 nM in test [4]; 50 to 500 nM in test [5].

For the molecule `COc1cc2c(Oc3ccc(NC(=O)C(=O)NCc4cccc(F)c4F)cc3F)ccnc2cc1OCC1CCNCC1` [Example 225, N-[(2,3-difluorophenyl)methyl]-N′-[3-fluoro-4-({6-(methyloxy)-7-[(piperidin-4-ylmethyl)oxy]quinolin-4-yl}oxy)phenyl]ethanediamide], the 50% inhibitory concentration (IC50) in test [1] was 50 to 500 nM; in test [2] it was < 50 nM; in test [3], < 50 nM; in test [4], 50 to 500 nM; in test [5] it was < 50 nM.

For `COc1cc2c(Oc3ccc(NC(=O)C(=O)NCCOc4ccccc4)cc3F)ccnc2cc1OCC1CCNCC1` [Example 226, N-[3-fluoro-4-({6-(methyloxy)-7-[(piperidin-4-ylmethyl)oxy]quinolin-4-yl}oxy)phenyl]-N′-[2-(phenyloxy)ethyl]ethanediamide], the IC50 in test [1], in test [2], in test [3], in test [4] and in test [5] was < 50 nM each time.

As for `COc1cc2c(Oc3ccc(NC(=O)C(=O)NCC(c4ccccc4)c4ccccc4)cc3F)ccnc2cc1OCC1CCNCC1` [Example 227, N-(2,2-diphenylethyl)-N′-[3-fluoro-4-({6-(methyloxy)-7-[(piperidin-4-ylmethyl)oxy]quinolin-4-yl}oxy)phenyl]ethanediamide], the IC50 was 50 to 500 nM in test [1]; < 50 nM in test [2]; 50 to 500 nM in test [3]; < 50 nM in test [4]; 50 to 500 nM in test [5].

As to `COc1ccc(CCNC(=O)C(=O)Nc2ccc(Oc3ccnc4cc(OCC5CCNCC5)c(OC)cc34)c(F)c2)cc1` [Example 228, N-[3-fluoro-4-({6-(methyloxy)-7-[(piperidin-4-ylmethyl)oxy]quinolin-4-yl}oxy)phenyl]-N′-{2-[4-(methyloxy)phenyl]ethyl}ethanediamide], the IC50 is 50 to 500 nM in test [1]; < 50 nM in test [2]; 50 to 500 nM in test [3]; 50 to 500 nM in test [4]; 50 to 500 nM in test [5].
